From patent US3996222A, “Piperazine derivatives” (CRC Compagnia de Ricerca Chimica, priority 1972, dated 1976)
Where a name gives a salt, the structure may show the parent alone. Read-outs that look alike come from different tables or passages of the source.

Assay: toxicity per os (LD50)
Assay type: in vivo
Text: Furthermore, their toxicities are extremely low in comparison with previously known cytostatic and cancer retardant pharmaceuticals.

SMILES	LD50 [mg/kg]	LD50 (in vivo, po, read-out: LD50) [mg/kg]
Clc1ccc(C(c2ccccc2)N2CC[N+]3(CCOCC3)CC2)cc1 (stereo not drawn) [X = I, N^1-(4'-chlorobenzhydryl)-N^4-spiromorpholinopiperazinium iodide]	276.7	–
Clc1ccc(C(c2ccccc2)N2CC[N+]3(CCOCC3)CC2)cc1.[Br-] (stereo not drawn) [X = Br, N^1-(4'-chlorobenzhydryl) -N^4-spiromorpholinopiperazinium bromide]	308.5	–
Clc1ccc(C(c2ccccc2)N2CC[N+]3(CCOCC3)CC2)cc1 (stereo not drawn) [X = Cl, N^1-(4'-chlorobenzhydryl)-N^4-spiro-morpholino-piperazinium chloride-hydrochloride]	–	316
